{"source": "paper PMC3651166", "about": "“Differential Cytotoxic Activity of a Novel Palladium-Based Compound on Prostate Cell Lines, Primary Prostate Epithelial Cells and Prostate Stem Cells” (PLoS ONE, 2013)", "format_in_all_cases": "cell-based, human", "key": {"[1]": {"test_system": "PNT2-C2, BPH-1, P4E6, PC-3 and LNCaP", "experiment": "Flow cytometry cell cycle analysis, cell lines", "procedure": "Following drug treatment, floating cells in the media were pooled with adherent cells, which were collected by trypsinisation. Following centrifugation cells were resuspended in 0.5 ml PBS. Cells were fixed in 2 ml ice cold 70% ethanol, which was added in a dropwise fashion while vortexing. Cells were incubated on ice for 30 min then washed in 5 ml PBS and resuspended in 0.4 ml PBS. Following storage at 4°C overnight, 50 µl of RNAse (1 mg/ml) and 50 µl of propidium iodide (1 mg/ml) were added to the cells. Following incubation at 37°C for 30 min the cells were analysed for 2N and 4N DNA content on a flow cytometer (Cyan ADP Analyser, Beckman Coulter)."}, "[2]": {"test_system": "γH2AX nuclear foci", "experiment": "γH2AX immunofluorescence, DNA damage in primary cultures", "settings": "48 h", "procedure": "γH2AX staining: Cells were seeded onto 8-well collagen I-coated chamber slides. […] After blocking of non-specific binding with 2% BSA in PBS with 1% goat serum for 1 hour at RT, primary antibody (anti-phospho-histone H2A.X (Ser139), clone JBW301, Millipore, Cat no. 05–636) at 1∶1000 dilution was added in 3% BSA in PBS at 4°C overnight followed by three washes in 0.5% BSA in PBS with 0.175% Tween 20. Following incubation with secondary antibody (Goat anti-mouse Alexa Fluor 568, Invitrogen, Cat no. A-11004) at 1∶1000 dilution for 45 min in 3% BSA in PBS and three more washes in the same washing buffer, the slides were mounted using Vectashield with DAPI (Vector Laboratories, Cat no. H-1200). LC3-B staining: Cells were treated as above then fixed with 4% paraformaldehyde, followed by an incubation in 0.3% Triton X-100. After blocking with 10% normal goat serum, cells were incubated in anti-LC3B 1∶200 (Ab51520, abcam) diluted in 0.1% Triton X-100 in PBS. […]\nSince the mechanism of action of the Pd complex has not been fully characterized, the DNA-damaging effect was assessed. […] Nuclei with evidence of γH2AX nuclear foci, indicative of DNA damage, were counted on 10 randomly chosen fields at the highest (63x) magnification and the mean number of positively-stained nuclei was calculated. At least 100 cells per well were counted."}, "[3]": {"test_system": "PCa Primary cells (Gl8/9)", "experiment": "MTS assay, primary cultures from prostate carcinoma Gleason 8/9", "excerpt": "Primary prostate epithelial cells were isolated from human tissue samples. The samples were collected with ethical permission from York District Hospital (York, UK) and Castle Hill Hospital (Cottingham, UK). Benign prostatic hyperplasia (BPH) and prostate cancer samples were obtained from TURP (transurethral resection of the prostate), radical prostatectomy (laparoscopic and open) and cystectomy operations. All patients gave written consent for their tissue to be used for research and all patient samples were anonymised. Permission was approved by the Local Research Ethical Committees, associated with York District Hospital and Castle Hill Hospital. Permission was administered by the Yorkshire and Humber Research Ethics Committee.\nProstate epithelial cells were cultured as previously described in stem cell media (SCM) consisting of keratinocyte serum-free media (KSFM) with bovine pituitary extract (BPE) and epidermal growth factor (EGF), glutamine, stem cell factor (SCF), granulocyte macrophage colony stimulating factor (GM-CSF), leukaemia inhibitory factor (LIF) and cholera toxin. Cells were grown with STO feeder cells (irradiated at 60 Gy) on collagen I-coated plates.\n(§1) This assay was performed for the initial screening of the effect of the Pd complex on the cell lines and the whole cell population of primary cultures. The CellTiter 96® Aqueous One Solution Cell Proliferation Assay kit (G3580, Promega, Madison, WI, USA) was used and the manufacturer’s instructions were followed. Briefly, after treating cells that were seeded at a density of 5,000 cells per well in a 96-well plate in triplicate for a desired period (24 h, 48 h, 72 h), 20 µL of reagent was added to each well. Following 2.5 h incubation at 37°C, the absorbance was read at 485 nm using a plate reader (PolarStar Optima, BMG Labtech, UK). Percent viability was calculated using the formula (% Viability = [(Sample Absorbance/Control Absorbance)]×100.\n(§2) MTS and ATP assays were performed in triplicate and data presented as the mean +/− standard deviation. IC50 values (Table 3 and Table 4) were calculated from graphs of transformed data following application of the nonlinear regression (curve fit) that represents the log(inhibitor) ‘v’ normalized response (GraphPad Prism software) (Supplementary Figures S1 and S2). For significance calculations, the Wilcoxon rank sum test was used (Sigmaplot). Flow cytometry analysis was carried out in triplicate and results are presented as an average with error bars indicating the standard error."}, "[4]": {"test_system": "PNT2-C2", "experiment": "MTS assay, anti-growth effect on cell line", "procedure": "(§3) In this study, six different prostate cell lines (PNT1A, PNT2-C2, BPH-1, PC-3, LNCaP, P4E6) were used (Table 1). These cell lines encompass the spectrum of cellular differentiation status (basal, intermediate and luminal phenotypes), as well as the spectrum of normal, early cancer and late cancer. BPH-1 is derived from benign prostate hyperplasia (BPH), while PNT2-C2 and PNT1A are derived from normal prostate. PC-3, LNCaP and P4E6 are cancer cell lines. LNCaP, PNT2-C2, PNT1A were grown in RPMI medium with 10% FCS (foetal calf serum); PC-3 was grown in Ham’s F-12 medium with 7% FCS; BPH-1 was grown in RPMI medium with 5% FCS; P4E6 was grown in KSFM (Keratinocyte serum free medium) with 2% FCS. No antibiotics were used in any media. The cells were incubated at 37°C in a humidified atmosphere containing 5% CO2.\nas §1, §2"}, "[5]": {"test_system": "P4E6", "experiment": "MTS assay, anti-growth effect on cell line", "procedure": "as §3, §1, §2"}, "[6]": {"test_system": "PNT1A", "experiment": "MTS assay, anti-growth effect on cell line", "procedure": "as §3, §1, §2"}, "[7]": {"test_system": "LNCaP", "experiment": "MTS assay, anti-growth effect on cell line", "procedure": "as §3, §1, §2"}, "[8]": {"test_system": "PC-3", "experiment": "MTS assay, anti-growth effect on cell line", "procedure": "as §3, §1, §2"}, "[9]": {"test_system": "BPH-1", "experiment": "MTS assay, anti-growth effect on cell line", "procedure": "as §3, §1, §2"}}, "note": "Like-named read-outs stand apart in the source and are kept apart here.", "data": [{"substance": "[PdCl(terpy)](sac)⋅2 H2O [Pd complex]", "values": [{"measurement": "sub-G1 DNA content (cell death)", "setting": "[1]; PC3 cells", "result": "almost no change"}, {"measurement": "sub-G1 DNA content (cell death)", "setting": "[1]; all cell lines except PC3", "result": "increase in cells with sub-G1 DNA content"}, {"measurement": "S and G2 peaks", "setting": "[1]; normal cells (BPH-1, PNT2-C2)", "result": "reduction in the S and G2 peaks"}, {"measurement": "level of DNA damage (γH2AX nuclear foci)", "setting": "[2]; 3.12 µM", "result": "did not induce a significant level of DNA damage"}, {"measurement": "level of DNA damage (γH2AX nuclear foci)", "setting": "[2]; etoposide and Pd complex at the same dose, primary cultures from prostate carcinoma", "result": "same level of DNA damage"}, {"measurement": "IC50", "setting": "[3]; PCa primary cells (Gl8/9), sample 14912, 72 h, read-out: IC50", "result": 64.1, "unit": "µM"}, {"measurement": "IC50", "setting": "[3]; PCa primary cells (Gl8/9), sample 16312, 72 h, read-out: IC50", "result": 70.4, "unit": "µM"}, {"measurement": "IC50", "setting": "[3]; PCa primary cells (Gl8/9), sample 22912, 72 h, read-out: IC50", "result": 46.7, "unit": "µM"}, {"measurement": "IC50", "setting": "[3]; average of PCa primary cells (Gl8/9), 72 h, read-out: IC50 AVERAGE", "result": 60.4, "unit": "µM"}, {"measurement": "IC50", "setting": "[4]; PNT2-C2, 24 h", "result": 1730, "unit": "nM"}, {"measurement": "IC50", "setting": "[4]; PNT2-C2, 48 h", "result": 17200, "unit": "nM"}, {"measurement": "IC50", "setting": "[4]; PNT2-C2, 72 h", "result": 903, "unit": "nM"}, {"measurement": "IC50", "setting": "[5]; P4E6, 24 h", "result": 21.8, "unit": "µM"}, {"measurement": "IC50", "setting": "[5]; P4E6, 48 h", "result": 9.66, "unit": "µM"}, {"measurement": "IC50", "setting": "[5]; P4E6, 72 h", "result": 4.37, "unit": "µM"}, {"measurement": "IC50", "setting": "[6]; 24 h", "result": 28000, "unit": "nM"}, {"measurement": "IC50", "setting": "[6]; 48 h", "result": 1260, "unit": "nM"}, {"measurement": "IC50", "setting": "[6]; 72 h", "result": 106, "unit": "nM"}, {"measurement": "IC50", "setting": "[7]; 24 h", "result": 106, "unit": "µM"}, {"measurement": "IC50", "setting": "[7]; 48 h", "result": 11.9, "unit": "µM"}, {"measurement": "IC50", "setting": "[7]; 72 h", "result": 3.43, "unit": "µM"}, {"measurement": "IC50", "setting": "[8]; PC-3, 24 h", "result": 98.9, "unit": "µM"}, {"measurement": "IC50", "setting": "[8]; PC-3, 48 h", "result": 49.1, "unit": "µM"}, {"measurement": "IC50", "setting": "[8]; PC-3, 72 h", "result": 26.8, "unit": "µM"}, {"measurement": "IC50", "setting": "[9]; BPH-1, 24 h", "result": 17600, "unit": "nM"}, {"measurement": "IC50", "setting": "[9]; BPH-1, 48 h", "result": 1880, "unit": "nM"}, {"measurement": "IC50", "setting": "[9]; BPH-1, 72 h", "result": 140, "unit": "nM"}]}]}
